Reference: the NIST ThermoML archive (doi:10.1021/je700176d)
± gives the expanded uncertainty stated by the source.

settings: 293 K; 101.33 kPa; Liquid; transient hot wire

Compound	thermal conductivity [W/m/K]
CCCCn1cc[n+](C)c1.O=S(=O)([O-])C(F)(F)F [1-butyl-3-methylimidazolium trifluoromethanesulfonate]	0.147 ± 0.01
CCOS(=O)(=O)[O-].CCn1cc[n+](C)c1 [1-ethyl-3-methylimidazolium ethyl sulfate]	0.182 ± 0.01
CCCCCCCCn1cc[n+](C)c1.O=S(=O)([N-]S(=O)(=O)C(F)(F)F)C(F)(F)F	0.128 ± 0.01
CCCCCC[n+]1ccn(C)c1.O=S(=O)([N-]S(=O)(=O)C(F)(F)F)C(F)(F)F	0.127 ± 0.01
CCCC[N+]1(C)CCCC1.O=S(=O)([N-]S(=O)(=O)C(F)(F)F)C(F)(F)F	0.125 ± 0.01
CCCC[N+]1(C)CCCC1.FC(F)(F)C(F)(F)[P-](F)(F)(F)(C(F)(F)C(F)(F)F)C(F)(F)C(F)(F)F	0.107 ± 0.01
CCCCCCCCCCn1cc[n+](C)c1.O=S(=O)([N-]S(=O)(=O)C(F)(F)F)C(F)(F)F	0.132 ± 0.01
CCCC[n+]1ccn(C)c1.O=S(=O)([N-]S(=O)(=O)C(F)(F)F)C(F)(F)F	0.128 ± 0.01
CCCCCCCCCCCCCC[P+](CCCCCC)(CCCCCC)CCCCCC.[Cl-] [trihexyl(tetradecyl)phosphonium chloride]	0.161 ± 0.01
CCCCCCCCCCCCCC[P+](CCCCCC)(CCCCCC)CCCCCC.O=S(=O)([N-]S(=O)(=O)C(F)(F)F)C(F)(F)F	0.144 ± 0.01
CCn1cc[n+](C)c1.O=S(=O)([N-]S(=O)(=O)C(F)(F)F)C(F)(F)F	0.13 ± 0.01

same assay, conditions: 303 K; 101.33 kPa; Liquid; transient hot wire

Compound	thermal conductivity [W/m/K]
CCCCn1cc[n+](C)c1.O=S(=O)([O-])C(F)(F)F [1-butyl-3-methylimidazolium trifluoromethanesulfonate]	0.146 ± 0.01
CCOS(=O)(=O)[O-].CCn1cc[n+](C)c1 [1-ethyl-3-methylimidazolium ethyl sulfate]	0.181 ± 0.01
CCCCCCCCn1cc[n+](C)c1.O=S(=O)([N-]S(=O)(=O)C(F)(F)F)C(F)(F)F	0.128 ± 0.01
CCCCCC[n+]1ccn(C)c1.O=S(=O)([N-]S(=O)(=O)C(F)(F)F)C(F)(F)F	0.127 ± 0.01
CCCC[N+]1(C)CCCC1.O=S(=O)([N-]S(=O)(=O)C(F)(F)F)C(F)(F)F	0.125 ± 0.01
CCCC[N+]1(C)CCCC1.FC(F)(F)C(F)(F)[P-](F)(F)(F)(C(F)(F)C(F)(F)F)C(F)(F)C(F)(F)F	0.106 ± 0.01
CCCCCCCCCCn1cc[n+](C)c1.O=S(=O)([N-]S(=O)(=O)C(F)(F)F)C(F)(F)F	0.131 ± 0.01
CCCC[n+]1ccn(C)c1.O=S(=O)([N-]S(=O)(=O)C(F)(F)F)C(F)(F)F	0.127 ± 0.01
CCCCCCCCCCCCCC[P+](CCCCCC)(CCCCCC)CCCCCC.[Cl-] [trihexyl(tetradecyl)phosphonium chloride]	0.16 ± 0.01
CCCCCCCCCCCCCC[P+](CCCCCC)(CCCCCC)CCCCCC.O=S(=O)([N-]S(=O)(=O)C(F)(F)F)C(F)(F)F	0.143 ± 0.01
CCn1cc[n+](C)c1.O=S(=O)([N-]S(=O)(=O)C(F)(F)F)C(F)(F)F	0.13 ± 0.01

same assay, conditions: 313 K; 101.33 kPa; Liquid; transient hot wire

Compound	thermal conductivity [W/m/K]
CCCCn1cc[n+](C)c1.O=S(=O)([O-])C(F)(F)F [1-butyl-3-methylimidazolium trifluoromethanesulfonate]	0.145 ± 0.01
CCOS(=O)(=O)[O-].CCn1cc[n+](C)c1 [1-ethyl-3-methylimidazolium ethyl sulfate]	0.181 ± 0.01
CCCCCCCCn1cc[n+](C)c1.O=S(=O)([N-]S(=O)(=O)C(F)(F)F)C(F)(F)F	0.128 ± 0.01
CCCCCC[n+]1ccn(C)c1.O=S(=O)([N-]S(=O)(=O)C(F)(F)F)C(F)(F)F	0.127 ± 0.01
CCCC[N+]1(C)CCCC1.O=S(=O)([N-]S(=O)(=O)C(F)(F)F)C(F)(F)F	0.124 ± 0.01
CCCC[N+]1(C)CCCC1.FC(F)(F)C(F)(F)[P-](F)(F)(F)(C(F)(F)C(F)(F)F)C(F)(F)C(F)(F)F	0.106 ± 0.01
CCCCCCCCCCn1cc[n+](C)c1.O=S(=O)([N-]S(=O)(=O)C(F)(F)F)C(F)(F)F	0.13 ± 0.01
CCCC[n+]1ccn(C)c1.O=S(=O)([N-]S(=O)(=O)C(F)(F)F)C(F)(F)F	0.127 ± 0.01
CCCCCCCCCCCCCC[P+](CCCCCC)(CCCCCC)CCCCCC.[Cl-] [trihexyl(tetradecyl)phosphonium chloride]	0.159 ± 0.01
CCCCCCCCCCCCCC[P+](CCCCCC)(CCCCCC)CCCCCC.O=S(=O)([N-]S(=O)(=O)C(F)(F)F)C(F)(F)F	0.142 ± 0.01
CCn1cc[n+](C)c1.O=S(=O)([N-]S(=O)(=O)C(F)(F)F)C(F)(F)F	0.129 ± 0.01

same assay, conditions: 323 K; 101.33 kPa; Liquid; transient hot wire

Compound	thermal conductivity [W/m/K]
CCCCn1cc[n+](C)c1.O=S(=O)([O-])C(F)(F)F [1-butyl-3-methylimidazolium trifluoromethanesulfonate]	0.144 ± 0.01
CCOS(=O)(=O)[O-].CCn1cc[n+](C)c1 [1-ethyl-3-methylimidazolium ethyl sulfate]	0.179 ± 0.01
CCCCCCCCn1cc[n+](C)c1.O=S(=O)([N-]S(=O)(=O)C(F)(F)F)C(F)(F)F	0.126 ± 0.01
CCCCCC[n+]1ccn(C)c1.O=S(=O)([N-]S(=O)(=O)C(F)(F)F)C(F)(F)F	0.126 ± 0.01
CCCC[N+]1(C)CCCC1.O=S(=O)([N-]S(=O)(=O)C(F)(F)F)C(F)(F)F	0.124 ± 0.01
CCCC[N+]1(C)CCCC1.FC(F)(F)C(F)(F)[P-](F)(F)(F)(C(F)(F)C(F)(F)F)C(F)(F)C(F)(F)F	0.105 ± 0.01
CCCCCCCCCCn1cc[n+](C)c1.O=S(=O)([N-]S(=O)(=O)C(F)(F)F)C(F)(F)F	0.129 ± 0.01
CCCC[n+]1ccn(C)c1.O=S(=O)([N-]S(=O)(=O)C(F)(F)F)C(F)(F)F	0.126 ± 0.01
CCCCCCCCCCCCCC[P+](CCCCCC)(CCCCCC)CCCCCC.[Cl-] [trihexyl(tetradecyl)phosphonium chloride]	0.157 ± 0.01
CCCCCCCCCCCCCC[P+](CCCCCC)(CCCCCC)CCCCCC.O=S(=O)([N-]S(=O)(=O)C(F)(F)F)C(F)(F)F	0.141 ± 0.01
CCn1cc[n+](C)c1.O=S(=O)([N-]S(=O)(=O)C(F)(F)F)C(F)(F)F	0.129 ± 0.01

same assay, conditions: 333 K; 101.33 kPa; Liquid; transient hot wire

Compound	thermal conductivity [W/m/K]
CCCCn1cc[n+](C)c1.O=S(=O)([O-])C(F)(F)F [1-butyl-3-methylimidazolium trifluoromethanesulfonate]	0.144 ± 0.01
CCOS(=O)(=O)[O-].CCn1cc[n+](C)c1 [1-ethyl-3-methylimidazolium ethyl sulfate]	0.179 ± 0.01
CCCCCCCCn1cc[n+](C)c1.O=S(=O)([N-]S(=O)(=O)C(F)(F)F)C(F)(F)F	0.126 ± 0.01
CCCCCC[n+]1ccn(C)c1.O=S(=O)([N-]S(=O)(=O)C(F)(F)F)C(F)(F)F	0.125 ± 0.01
CCCC[N+]1(C)CCCC1.FC(F)(F)C(F)(F)[P-](F)(F)(F)(C(F)(F)C(F)(F)F)C(F)(F)C(F)(F)F	0.105 ± 0.01
CCCCCCCCCCn1cc[n+](C)c1.O=S(=O)([N-]S(=O)(=O)C(F)(F)F)C(F)(F)F	0.128 ± 0.01
CCCC[n+]1ccn(C)c1.O=S(=O)([N-]S(=O)(=O)C(F)(F)F)C(F)(F)F	0.125 ± 0.01
CCCCCCCCCCCCCC[P+](CCCCCC)(CCCCCC)CCCCCC.[Cl-] [trihexyl(tetradecyl)phosphonium chloride]	0.157 ± 0.01
CCCCCCCCCCCCCC[P+](CCCCCC)(CCCCCC)CCCCCC.O=S(=O)([N-]S(=O)(=O)C(F)(F)F)C(F)(F)F	0.141 ± 0.01
CCn1cc[n+](C)c1.O=S(=O)([N-]S(=O)(=O)C(F)(F)F)C(F)(F)F	0.129 ± 0.01

same assay, conditions: 343 K; 101.33 kPa; Liquid; transient hot wire

Compound	thermal conductivity [W/m/K]
CCCCn1cc[n+](C)c1.O=S(=O)([O-])C(F)(F)F [1-butyl-3-methylimidazolium trifluoromethanesulfonate]	0.143 ± 0.01
CCOS(=O)(=O)[O-].CCn1cc[n+](C)c1 [1-ethyl-3-methylimidazolium ethyl sulfate]	0.178 ± 0.01
CCCCCCCCn1cc[n+](C)c1.O=S(=O)([N-]S(=O)(=O)C(F)(F)F)C(F)(F)F	0.125 ± 0.01
CCCCCC[n+]1ccn(C)c1.O=S(=O)([N-]S(=O)(=O)C(F)(F)F)C(F)(F)F	0.125 ± 0.01
CCCC[N+]1(C)CCCC1.FC(F)(F)C(F)(F)[P-](F)(F)(F)(C(F)(F)C(F)(F)F)C(F)(F)C(F)(F)F	0.105 ± 0.01
CCCCCCCCCCn1cc[n+](C)c1.O=S(=O)([N-]S(=O)(=O)C(F)(F)F)C(F)(F)F	0.128 ± 0.01
CCCC[n+]1ccn(C)c1.O=S(=O)([N-]S(=O)(=O)C(F)(F)F)C(F)(F)F	0.124 ± 0.01
CCCCCCCCCCCCCC[P+](CCCCCC)(CCCCCC)CCCCCC.[Cl-] [trihexyl(tetradecyl)phosphonium chloride]	0.156 ± 0.01
CCCCCCCCCCCCCC[P+](CCCCCC)(CCCCCC)CCCCCC.O=S(=O)([N-]S(=O)(=O)C(F)(F)F)C(F)(F)F	0.14 ± 0.01
CCn1cc[n+](C)c1.O=S(=O)([N-]S(=O)(=O)C(F)(F)F)C(F)(F)F	0.129 ± 0.01

same assay, conditions: 353 K; 101.33 kPa; Liquid; transient hot wire

Compound	thermal conductivity [W/m/K]
CCCCn1cc[n+](C)c1.O=S(=O)([O-])C(F)(F)F [1-butyl-3-methylimidazolium trifluoromethanesulfonate]	0.142 ± 0.01
CCOS(=O)(=O)[O-].CCn1cc[n+](C)c1 [1-ethyl-3-methylimidazolium ethyl sulfate]	0.177 ± 0.01
CCCCCCCCn1cc[n+](C)c1.O=S(=O)([N-]S(=O)(=O)C(F)(F)F)C(F)(F)F	0.126 ± 0.01
CCCCCC[n+]1ccn(C)c1.O=S(=O)([N-]S(=O)(=O)C(F)(F)F)C(F)(F)F	0.125 ± 0.01
CCCC[N+]1(C)CCCC1.FC(F)(F)C(F)(F)[P-](F)(F)(F)(C(F)(F)C(F)(F)F)C(F)(F)C(F)(F)F	0.105 ± 0.01
CCCCCCCCCCn1cc[n+](C)c1.O=S(=O)([N-]S(=O)(=O)C(F)(F)F)C(F)(F)F	0.128 ± 0.01
CCCC[n+]1ccn(C)c1.O=S(=O)([N-]S(=O)(=O)C(F)(F)F)C(F)(F)F	0.124 ± 0.01
CCCCCCCCCCCCCC[P+](CCCCCC)(CCCCCC)CCCCCC.[Cl-] [trihexyl(tetradecyl)phosphonium chloride]	0.155 ± 0.01
CCCCCCCCCCCCCC[P+](CCCCCC)(CCCCCC)CCCCCC.O=S(=O)([N-]S(=O)(=O)C(F)(F)F)C(F)(F)F	0.139 ± 0.01
CCn1cc[n+](C)c1.O=S(=O)([N-]S(=O)(=O)C(F)(F)F)C(F)(F)F	0.128 ± 0.01
